Data reported in the supplement of paper PMC10307832.

What was measured:
Test in all cases: relative viability (nuclei count vs DMSO), 5 days (fraction); higher = more cells survive
[1] = compound: O=C(c1cc(Cc2n[nH]c(=O)c3ccccc23)ccc1F)N1CCN(C(=O)C2CC2)CC1 [Olaparib] + C[C@]1(O)C[C@@H](c2nc(-c3ccc4ccc(-c5ccccc5)nc4c3)c3c(N)nccn32)C1 [Linsitinib] (partner 1 µM)
How it was run: (§1)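 After 5 days of treatment, lung cancer cells in 1536-well plates were fixed and stained in a single step (final 0.05% Triton X-100, 1% formaldehyde, 1 ug/ml Hoechst) and their nuclei counted on 4× images. Treatment had been applied by pin tool the day after seeding as one drug alone or as a fixed anchor-drug dose with five library-drug doses (not always all listed) in √10 steps. Relative viability is the nuclei count of treated wells divided by that of vehicle wells, and values are medians of duplicate plates.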

[2] = compound: CC(C)C[C@H](NC(=O)[C@H](CCc1ccccc1)NC(=O)CN1CCOCC1)C(=O)N[C@@H](Cc1ccccc1)C(=O)N[C@@H](CC(C)C)C(=O)[C@@]1(C)CO1 [Carfilzomib] + CC1(C)CCC(c2ccc(Cl)cc2)=C(CN2CCN(c3ccc(C(=O)NS(=O)(=O)c4ccc(N[C@H](CCN5CCOCC5)CSc5ccccc5)c(S(=O)(=O)C(F)(F)F)c4)cc3)CC2)C1 [Navitoclax] (partner 0.5 µM)
How it was run: as §1

[3] = compound: C[C@@H](Oc1cc(-c2cnn(C3CCNCC3)c2)cnc1N)c1c(Cl)ccc(F)c1Cl [Crizotinib] + COc1cccc2cc(-c3nc([C@H]4CC[C@H](C(=O)O)CC4)n4ncnc(N)c34)[nH]c12 [OSI-027] (partner 0.5 µM)
How it was run: as §1

[4] = compound: O=C(c1cc(Cc2n[nH]c(=O)c3ccccc23)ccc1F)N1CCN(C(=O)C2CC2)CC1 [Olaparib] + CC(C)C[C@H](NC(=O)[C@H](Cc1ccccc1)NC(=O)c1cnccn1)B(O)O [Bortezomib] (partner 0.002 µM)
How it was run: as §1

| Cell Line | relative viability ([1]; first compound 0.08 µM) | relative viability ([1]; first compound 0.253 µM) | relative viability ([1]; first compound 2.53 µM) | relative viability ([1]; first compound 8 µM) | relative viability ([2]; first compound 0.001 µM) | relative viability ([2]; first compound 0.003162 µM) | relative viability ([2]; first compound 0.01 µM) | relative viability ([2]; first compound 0.03162 µM) | relative viability ([2]; first compound 0.1 µM) | relative viability ([3]; first compound 0.01 µM) | relative viability ([3]; first compound 0.03162 µM) | relative viability ([3]; first compound 0.1 µM) | relative viability ([3]; first compound 0.3162 µM) | relative viability ([3]; first compound 1 µM) | relative viability ([4]; first compound 0.08 µM) | relative viability ([4]; first compound 0.253 µM) | relative viability ([4]; first compound 2.53 µM) | relative viability ([4]; first compound 8 µM) |
| --- | --- | --- | --- | --- | --- | --- | --- | --- | --- | --- | --- | --- | --- | --- | --- | --- | --- | --- |
| 201T | 1.04 | 1.01 | 1.04 | 1.01 | 1.14 | 1.23 | 1.22 | 1.23 | 1.18 | 0.635 | 0.744 | 0.668 | 0.77 | 0.698 | 1.19 | 1.03 | 1.11 | 1.07 |
| A549 | 0.761 | 0.567 | 0.588 | 0.436 | 1.17 | 1.21 | 1.24 | 0.0372 | 0.0397 |  |  |  |  |  |  |  |  |  |
| A-427 | 1.12 | 1.03 | 1.03 | 0.851 | 0.954 | 1.01 | 1.04 | 0.644 | 0.113 | 0.352 | 0.447 | 0.414 |  | 0.441 | 1.03 | 0.96 | 0.877 | 0.673 |
| ABC-1 | 1.1 | 0.918 | 0.644 | 0.556 |  |  |  |  |  |  | 0.526 | 0.426 | 0.422 | 0.402 | 0.308 | 0.332 | 0.323 | 0.33 |
| BEN | 0.89 | 0.749 | 1.05 | 0.982 | 0.0574 | 0.0653 | 0.0797 | 0.0533 | 0.047 | 0.308 | 0.3 | 0.296 | 0.307 | 0.286 | 0.651 | 0.632 | 0.881 | 0.829 |
| CAL-12T | 1.05 | 0.751 | 0.825 | 0.666 |  | 0.996 | 1.22 | 0.822 | 0.104 | 0.639 | 0.71 | 0.67 |  | 0.586 | 1.16 | 0.842 | 1.04 | 1.03 |
| COR-L23 | 1.09 | 0.852 | 0.716 | 0.432 | 1.1 | 1.14 | 0.724 | 0.0667 | 0.0704 | 0.742 | 0.73 | 0.674 | 0.76 | 0.723 | 1.06 | 0.862 | 0.92 | 0.474 |
| COR-L 105 | 1.03 | 0.804 | 0.706 | 0.591 | 0.885 | 0.628 | 0.643 | 0.353 | 0.298 | 0.577 | 0.803 | 0.657 | 0.562 | 0.728 | 0.936 | 0.85 | 0.464 | 0.426 |
| Calu-6 | 1.06 | 0.866 | 0.824 | 0.717 | 0.885 | 0.997 | 0.561 | 0.0829 | 0.0768 |  |  |  |  |  | 1.13 | 0.959 | 0.796 | 0.777 |
| ChaGo-K-1 |  |  |  |  |  | 1.58 | 1.01 | 0.693 | 0.385 | 0.438 | 0.675 | 0.502 | 0.435 | 0.53 | 1.27 | 0.96 | 1.02 | 0.845 |
